Source: PubChem BioAssay AID330 (DTP/NCI, 2004)
“And” between values parts separate entries of the source, which are not always exact repeats. Identical values can stand only once. Inconclusive results and toxic doses are left out.

Test system: P388 leukemia ip, CD2F1 mice, survival T/C
Test: NCI In Vivo Anticancer Drug Screen. Data for tumor model P388 Leukemia (intraperitoneal) in CD2F1 (CDF1) mice
Settings: endpoint: median survival time, higher = longer survival
Summary of the method: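 Mice carrying the transplanted tumor received test compound or vehicle. Survival was recorded in each group, and the value is the treated-group measurement divided by that of the vehicle-treated control group.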

[1] = dose: 25.0 mg/kg/injection, schedule: Q01DX009 (ip), vehicle: Klucel (hydroxypropylcellulose) (HPC)
[2] = dose: 50.0 mg/kg/injection, schedule: Q01DX009 (ip), vehicle: Klucel (hydroxypropylcellulose) (HPC)
[3] = dose: 50.0 mg/kg/injection, schedule: Q01DX005 (ip), vehicle: saline with Tween-80
[4] = dose: 100.0 mg/kg/injection, schedule: Q01DX005 (ip), vehicle: saline with Tween-80
[5] = dose: 200.0 mg/kg/injection, schedule: Q01DX005 (ip), vehicle: saline with Tween-80
[6] = dose: 12.5 mg/kg/injection, schedule: Q01DX005 (ip), vehicle: saline
[7] = dose: 25.0 mg/kg/injection, schedule: Q01DX005 (ip), vehicle: saline
[8] = dose: 100.0 mg/kg/injection, schedule: Q01DX009 (ip), vehicle: saline
[9] = dose: 50.0 mg/kg/injection, schedule: Q01DX005 (ip), vehicle: Klucel (hydroxypropylcellulose) (HPC)
[10] = dose: 100.0 mg/kg/injection, schedule: Q01DX005 (ip), vehicle: Klucel (hydroxypropylcellulose) (HPC)
[11] = dose: 200.0 mg/kg/injection, schedule: Q01DX005 (ip), vehicle: Klucel (hydroxypropylcellulose) (HPC)
[12] = dose: 25.0 mg/kg/injection, schedule: Q04DX003 (ip), vehicle: saline with Tween-80
[13] = dose: 50.0 mg/kg/injection, schedule: Q04DX003 (ip), vehicle: saline with Tween-80
[14] = dose: 100.0 mg/kg/injection, schedule: Q04DX003 (ip), vehicle: saline with Tween-80
[15] = dose: 100.0 mg/kg/injection, schedule: Q01DX009 (ip), vehicle: saline with Tween-80
[16] = dose: 200.0 mg/kg/injection, schedule: Q01DX009 (ip), vehicle: saline with Tween-80
[17] = dose: 200.0 mg/kg/injection, schedule: Q04DX003 (ip), vehicle: saline with Tween-80
[18] = dose: 50.0 mg/kg/injection, schedule: Q01DX005 (ip), vehicle: saline
[19] = dose: 400.0 mg/kg/injection, schedule: Q04DX003 (ip), vehicle: saline with Tween-80
[20] = dose: 12.5 mg/kg/injection, schedule: Q01DX009 (ip), vehicle: saline
[21] = dose: 25.0 mg/kg/injection, schedule: Q01DX009 (ip), vehicle: saline
[22] = dose: 50.0 mg/kg/injection, schedule: Q01DX009 (ip), vehicle: saline
[23] = dose: 200.0 mg/kg/injection, schedule: Q01DX009 (ip), vehicle: saline

Q: With `CCOS(=O)c1ccc(C)cc1` (stereo unspecified) as the compound, how does the T/C (dose: 12.5 mg/kg/injection, schedule: Q01DX009 (ip), vehicle: Klucel (hydroxypropylcellulose) (HPC)) read?
A: 98 % of control

Q: And the T/C [1]?
A: 98 % of control

Q: What about the T/C [2] of the same compound?
A: 105 % of control and 110 % of control

Q: For `O=C(NN1C(=O)CSC1c1ccccc1F)c1ccncc1` (stereo unspecified), which T/C [3] is on record?
A: 93 % of control

Q: And the T/C [4]?
A: 108 % of control

Q: What about the T/C [5] of the same compound?
A: 97 % of control

Q: Which results are given for `CN(C)c1ccc(N)c(N)c1`?
A: T/C (dose: 3.12 mg/kg/injection, schedule: Q01DX005 (ip), vehicle: saline): 99 % of control; T/C (dose: 6.25 mg/kg/injection, schedule: Q01DX005 (ip), vehicle: saline): 99 % of control; T/C [6]: 103 % of control; T/C [7]: 105 % of control and 106 % of control; T/C [8]: 98 % of control

Q: For `C=Cc1c2ccccc2cc2ccccc12`, which T/C [9] is on record?
A: 109 % of control

Q: And the T/C [10]?
A: 106 % of control

Q: And the T/C [11]?
A: 100 % of control

Q: How did the T/C (dose: 50.0 mg/kg/injection, schedule: Q01DX009 (ip), vehicle: acetone) turn out when `Cc1ccn2ccnc2c1` was run?
A: 102 % of control

Q: What about the T/C (dose: 100.0 mg/kg/injection, schedule: Q01DX009 (ip), vehicle: acetone) of the same compound?
A: 113 % of control

Q: With `NC(=S)N/N=C/c1ccc(-c2ccccc2)cc1` as the compound, how does the T/C (dose: 12.5 mg/kg/injection, schedule: Q04DX003 (ip), vehicle: saline with Tween-80) read?
A: 110 % of control

Q: What about the T/C [12] of the same compound?
A: 120 % of control

Q: And the T/C [13]?
A: 100 % of control

Q: What does the source list for `CCCCCCCCCCCCCCCC(O)CC(O)CC(O)CC1CC=CC(=O)O1` (stereo unspecified)?
A: T/C (dose: 4.0 mg/kg/injection, schedule: Q01DX009 (ip), vehicle: Klucel (hydroxypropylcellulose) (HPC)): 100 % of control; T/C (dose: 8.0 mg/kg/injection, schedule: Q01DX009 (ip), vehicle: Klucel (hydroxypropylcellulose) (HPC)): 100 % of control; T/C (dose: 16.0 mg/kg/injection, schedule: Q01DX009 (ip), vehicle: Klucel (hydroxypropylcellulose) (HPC)): 104 % of control; T/C (dose: 32.0 mg/kg/injection, schedule: Q01DX009 (ip), vehicle: Klucel (hydroxypropylcellulose) (HPC)): 109 % of control

Q: Which results are given for `O=C(CCBr)c1ccc(Cl)cc1`?
A: T/C [12]: 107 % of control; T/C [13]: 103 % of control; T/C [14]: 100 % of control

Q: With `O=C1NC(CCCl)C(=O)NC1CCCl` (stereo unspecified) as the compound, how does the T/C [3] read?
A: 96 % of control

Q: And the T/C (dose: 50.0 mg/kg/injection, schedule: Q01DX009 (ip), vehicle: saline with Tween-80)?
A: 110 % of control

Q: And the T/C [13]?
A: 95 % of control

Q: And the T/C [4]?
A: 100 % of control

Q: What about the T/C [15] of the same compound?
A: 95 % of control

Q: And the T/C [14]?
A: 100 % of control

Q: And the T/C [5]?
A: 100 % of control

Q: What about the T/C [16] of the same compound?
A: 110 % of control

Q: What about the T/C [17] of the same compound?
A: 100 % of control

Q: With `O=S1(=O)CS(=O)(=O)OCCCCO1` as the compound, how does the T/C [6] read?
A: 176 % of control

Q: And the T/C [7]?
A: 167 % of control and 199 % of control

Q: What about the T/C [18] of the same compound?
A: 87 % of control

Q: For `Cc1ccc(C(=O)c2ccccc2C(=O)O)cc1N`, which T/C [15] is on record?
A: 100 % of control

Q: And the T/C [14]?
A: 100 % of control

Q: And the T/C [16]?
A: 100 % of control

Q: And the T/C [17]?
A: 100 % of control

Q: And the T/C (dose: 400.0 mg/kg/injection, schedule: Q01DX009 (ip), vehicle: saline with Tween-80)?
A: 100 % of control

Q: And the T/C [19]?
A: 108 % of control

Q: For `O=C(NC(Cc1ccccc1)C(=O)O)C(=O)c1c[nH]c2ccc(Cl)cc12` (stereo unspecified), which T/C (dose: 60.0 mg/kg/injection, schedule: Q01DX005 (ip), vehicle: saline with Tween-80) is on record?
A: 100 % of control

Q: What about the T/C (dose: 120.0 mg/kg/injection, schedule: Q01DX005 (ip), vehicle: saline with Tween-80) of the same compound?
A: 96 % of control

Q: What about the T/C (dose: 240.0 mg/kg/injection, schedule: Q01DX005 (ip), vehicle: saline with Tween-80) of the same compound?
A: 94 % of control

Q: How did the T/C [14] turn out when `Nc1cc2ccc3ncccc3c2c2cccnc12` was run?
A: 103 % of control

Q: And the T/C [17]?
A: 97 % of control

Q: What about the T/C [19] of the same compound?
A: 97 % of control

Q: How did the T/C [20] turn out when `c1ccc2c(c1)Sc1ccccc1N2CCCN1CCCC1` was run?
A: 105 % of control

Q: And the T/C [21]?
A: 104 % of control

Q: And the T/C (dose: 25.0 mg/kg/injection, schedule: Q04DX002 (ip), vehicle: saline)?
A: 111 % of control

Q: And the T/C [22]?
A: 112 % of control and 120 % of control

Q: And the T/C (dose: 50.0 mg/kg/injection, schedule: Q04DX002 (ip), vehicle: saline)?
A: 111 % of control

Q: And the T/C (dose: 100.0 mg/kg/injection, schedule: Q04DX002 (ip), vehicle: saline)?
A: 101 % of control

Q: Which results are given for `CCOC(=O)C1=C(C)NC(=O)NC1c1cccs1` (stereo unspecified)?
A: T/C [9]: 98 % of control; T/C [10]: 96 % of control; T/C [11]: 97 % of control

Q: Which T/C (dose: 100.0 mg/kg/injection, schedule: Q01DX009 (ip), vehicle: saline sonified) does the source give for `O=C1C(Cl)=C(Cl)C(=O)C2=C1C1c3ccccc3C2c2ccccc21` here?
A: 105 % of control

Q: What about the T/C (dose: 200.0 mg/kg/injection, schedule: Q01DX009 (ip), vehicle: saline sonified) of the same compound?
A: 110 % of control

Q: What about the T/C (dose: 400.0 mg/kg/injection, schedule: Q01DX009 (ip), vehicle: saline sonified) of the same compound?
A: 100 % of control

Q: With `CC(=O)/C=C(\C)Nc1ccccc1` as the compound, how does the T/C [20] read?
A: 106 % of control

Q: What about the T/C [21] of the same compound?
A: 102 % of control

Q: What about the T/C [22] of the same compound?
A: 91 % of control and 97 % of control

Q: What about the T/C [23] of the same compound?
A: 97 % of control

Q: For `[NH-]C(CCC(N)=O)C(=O)O.[NH-]C(CCCN=C(N)N)C(=O)O.[Zn+2]` (stereo unspecified), which T/C [7] is on record?
A: 100 % of control and 106 % of control

Q: What about the T/C [18] of the same compound?
A: 103 % of control and 106 % of control

Q: And the T/C (dose: 100.0 mg/kg/injection, schedule: Q01DX005 (ip), vehicle: saline)?
A: 110 % of control and 119 % of control

Q: Which results are given for `NC(N)=N/N=C/C(O)C(O)C(O)C(O)CO` (stereo unspecified)?
A: T/C (dose: 60.0 mg/kg/injection, schedule: Q01DX005 (ip), vehicle: saline): 100 % of control; T/C (dose: 120.0 mg/kg/injection, schedule: Q01DX005 (ip), vehicle: saline): 100 % of control; T/C (dose: 240.0 mg/kg/injection, schedule: Q01DX005 (ip), vehicle: saline): 106 % of control

Q: How did the T/C [1] turn out when `CC(=O)c1cccc(NC(=O)Nc2nccs2)c1` was run?
A: 102 % of control

Q: And the T/C [2]?
A: 110 % of control

Q: What about the T/C (dose: 100.0 mg/kg/injection, schedule: Q01DX009 (ip), vehicle: Klucel (hydroxypropylcellulose) (HPC)) of the same compound?
A: 101 % of control

Q: And the T/C (dose: 200.0 mg/kg/injection, schedule: Q01DX009 (ip), vehicle: Klucel (hydroxypropylcellulose) (HPC))?
A: 105 % of control

Q: Which results are given for `CC(NC(=O)C(Cc1cnc[nH]1)NC(=O)OCc1ccccc1)C(=O)O` (stereo unspecified)?
A: T/C [9]: 96 % of control; T/C [10]: 96 % of control; T/C [11]: 96 % of control

Q: For `CC(N)C(O)c1ccc(O)cc1` (stereo unspecified), which T/C [22] is on record?
A: 102 % of control and 108 % of control

Q: What about the T/C [8] of the same compound?
A: 101 % of control

Q: What about the T/C [23] of the same compound?
A: 101 % of control and 108 % of control

Q: And the T/C (dose: 400.0 mg/kg/injection, schedule: Q01DX009 (ip), vehicle: saline)?
A: 87 % of control and 89 % of control

Q: With `COc1ccc(N=Nc2c(O)n(-c3ccccc3Cl)c(=S)n(-c3ccc(C)cc3)c2=O)cc1` as the compound, how does the T/C (dose: 100.0 mg/kg/injection, schedule: Q01DX001 (ip), vehicle: Klucel (hydroxypropylcellulose) (HPC)) read?
A: 105 % of control

Q: And the T/C (dose: 200.0 mg/kg/injection, schedule: Q01DX001 (ip), vehicle: Klucel (hydroxypropylcellulose) (HPC))?
A: 97 % of control

Q: And the T/C (dose: 400.0 mg/kg/injection, schedule: Q01DX001 (ip), vehicle: Klucel (hydroxypropylcellulose) (HPC))?
A: 102 % of control
